The source of these data is US12590123B2, “Compounds and methods for treating cancer, viral infections, and allergic conditions” (Washington University, priority 2019, dated 2026).

Holding throughout (type): biochemical
Assay [1] addresses T1, matriptase (Homo sapiens, UniProt Q9Y5Y6).
T1 construct: purchased R&D Systems 3946-SE-010
T1 sequence (Q9Y5Y6 615-855 limits assumed): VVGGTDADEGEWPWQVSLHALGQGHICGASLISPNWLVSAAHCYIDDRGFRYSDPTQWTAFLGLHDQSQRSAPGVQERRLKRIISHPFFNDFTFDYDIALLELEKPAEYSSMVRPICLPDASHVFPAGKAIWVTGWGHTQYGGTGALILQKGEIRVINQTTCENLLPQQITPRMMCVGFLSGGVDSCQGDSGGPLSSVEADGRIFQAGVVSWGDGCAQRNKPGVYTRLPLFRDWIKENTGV
In words: Fluorescent kinetic enzyme assay of matriptase activity (Boc-QAR-AMC).
Protocol: After thirty minutes of incubation at room temperature, Boc-QLR-AMC substrate was added (HGFA assay) or Boc-QAR-AMC substrate (matriptase, and hepsin assays). […] From a plot of the mean reaction velocity versus the inhibitor concentration, a non-linear four parameter curve fit was performed using GraphPad Prism (GraphPad Software, San Diego, CA) to determine inhibitor IC50s. The IC50 values were determined from the average of three or more separate experimental determinations. Apparent Ki values were calculated using the Cheng and Prusoff equation (Ki=IC50/(1+[S]/Km).
Inhibitors were pre-incubated with protease followed by the addition of the substrate. Inhibition of substrate proteolysis derived fluorescence was monitored kinetically over a period of one hour.

Assay [2] has as its target T2, activated hepsin (Homo sapiens, UniProt P05981).
T2 construct: purchased R&D Systems 4776-SE-010
As to the kind of experiment: Fluorescent kinetic enzyme assay of hepsin activity (Boc-QAR-AMC).

Assay [3] addresses recombinant thrombin (Homo sapiens, UniProt P00734). As to the kind of experiment: Chromogenic kinetic enzyme assay of thrombin (S2238). As to the method: (§1) Using GraphPad Prism (GraphPad Software, San Diego, CA), a four-parameter curve fit was used to determine the inhibitor IC50s from a plot of the mean reaction velocity versus the inhibitor concentration. The IC50 values represent the average of three or more separate experimental determinations. Apparent Ki values were calculated from the IC50 values using the Cheng and Prusoff equation (Ki=IC50/(1+[S]/Km).
(§2) Using GraphPad Prism version 6.04 software program, (GraphPad Software, San Diego, CA, graphpad.com), a four parameter curve fit was used to determine the inhibitor IC50s from a plot of the mean reaction velocity versus the inhibitor concentration.
(§3) Fluorescent inhibitor and chromogenic proteolytic assays were performed for compounds prepared in Example 11 in general accordance with the procedures described in Example 9.

Assay [4] addresses T3, recombinant HGFA serine protease domain (Homo sapiens, UniProt Q04756).
T3 construct: His6 tag (N); seven amino acid spacer plus TEV cleavage site (N); made in house; host or cells: High 5 insect cells (baculovirus; Sf9 for virus production)
T3 sequence (Q04756 373-655): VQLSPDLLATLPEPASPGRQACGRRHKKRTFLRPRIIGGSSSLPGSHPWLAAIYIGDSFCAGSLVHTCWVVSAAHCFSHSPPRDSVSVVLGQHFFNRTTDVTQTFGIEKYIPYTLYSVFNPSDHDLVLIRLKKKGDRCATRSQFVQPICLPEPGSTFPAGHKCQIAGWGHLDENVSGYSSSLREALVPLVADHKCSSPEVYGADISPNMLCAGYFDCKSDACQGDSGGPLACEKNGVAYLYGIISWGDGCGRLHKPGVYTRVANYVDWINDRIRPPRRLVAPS
In words: Fluorescent kinetic enzyme assay of HGFA activity (Boc-QLR-AMC). From the text: The compounds prepared in Examples 1 to 8 were subjected to a series of inhibitions studies. The compounds were first tested in an HGFA enzymatic assay using the fluorogenic substrate Boc-QLR-AMC with a recombinant form of the HGFA serine protease domain.
This PCR product was cloned into the SfoI-HindIII sites of a modified pFastBac HT baculovirus expression vector (Addgene, Cambridge, MA). This vector contains a six amino His tag followed by a seven amino spacer and a seven amino acid TEV cleavage site placed immediately downstream of the honey bee melittin signal peptide. Using a modified Bac to Bac Expression System (Life Technologies, Carlsbad, CA), recombinant HGFA bacmids were obtained by transforming DH10Bac Escherichia coli cells. To obtain HGFA containing baculovirus, purified bacmids were transfected into Sf9 insect cells. After 5 days in culture at 27° C., media was harvested from transfected Sf9 cells. This media was used to prepare baculovirus infected insect cells (BIICs). These BIIICs were used to infect High 5 insect cells. Four days post infection, media was harvested, and recombinant protein was prepared as follows. Media was chilled to 4° C. and spun at 4000×g for 20 minutes (all subsequent steps were performed at 4° C. unless noted). Clarified media was passed first through a Whatman GF/B 1 um (#1821-047, GE Healthcare Life Sciences, Piscataway, NJ) and then a 0.22 μm PES membrane (#99955, TPP Techno Plastic Products AG, Trasadingen, Switzerland) and then concentrated using a Pall Centramate tangential flow system and Centramate T-series Cassette (#OS010T12, Pall Corporation, Port Washington, NY). Concentrated media was then buffer exchanged in two steps, five volumes of 50 mM Na-phosphate, 500 mM NaCl, pH 6.2, followed by five volumes of 50 mM Na-phosphate, 500 mM NaCl, pH 7.5. […] After mixing this slurry for 12 hours, nickel agarose beads were allowed to settle by gravity and then loaded into a column. Beads were washed with buffer (25 mM Na-phosphate, 500 mM NaCl, 25 mM imidazole, pH 8) and the bound protein eluted using (25 mM Na-phosphate, 500 mM NaCl, 250 mM imidazole, pH 8). Using a Amicon Ultra-4 Centrifugal filters (#UFC801008, Merck Millipore, Ltd., Tullagreen, Ireland), peak protein fractions were concentrated and run over a Superdex-200 10/300 GL column (GE Healthcare Life Sciences, Piscataway, NJ) in 10 mM Tris, 200 mM NaCl, 0.2 mM EDTA, pH 8. HGFA containing fractions were pooled, concentrated, made 50% glycerol, and stored at minus 20° C. Protein was quantitated using a modified Lowry protein assay (#500-0006, Bio-Rad Laboratories, Hercules, CA) and specific activity determined using Boc-QLR-AMC substrate.
Fluorescent kinetic enzyme assays of HGFA, matriptase, and hepsin activity: Compounds (0-20 μM final concentration in reaction) were diluted in DMSO (2% DMSO final concentration in reaction) and then mixed with either recombinant HGFA serine protease domain, matriptase (#3946-SE-010, R&D Systems, Minneapolis, Minnesota), or activated hepsin* (#4776-SE-010, R&D Systems, Minneapolis, Minnesota) in black 384 well plates (Corning #3575. Coming, NY). The final assay concentration for HGFA, matriptase, and hepsin, were 6.25 nM, 0.2 nM, and 0.3 nM, respectively in TNC buffer (25 mM Tris, 150 mM NaCl, 5 mM CaCl2, 0.01% Triton X-100, pH 8). After thirty minutes of incubation at room temperature, Boc-QLR-AMC substrate was added (HGFA assay) or Boc-QAR-AMC substrate (matriptase, and hepsin assays). Fluorescence (excitation at 380 nm and emission at 460 nm) was kinetically measured at room temperature over a 1 hour time period using a Biotek Synergy 2 plate reader (Winnoski, VT). From a plot of the mean reaction velocity versus the inhibitor concentration, a non-linear four parameter curve fit was performed using GraphPad Prism (GraphPad Software, San Diego, CA) to determine inhibitor IC50s. The IC50 values were determined from the average of three or more separate experimental determinations. […]

Assay [5] deals with Factor Xa (Homo sapiens, UniProt P00742). In words: Chromogenic kinetic enzyme assay of Factor Xa (S2222). Here is the method: as §1, §2, §3
Where [6] appears, read: Example 12, read-out: IC50 for matriptase.
Where [7] appears, read: Example 12, read-out: IC50 for hepsin.
Where [8] appears, read: Table 3, average of three experiments, read-out: Thrombin IC50.
Where [9] appears, read: Table 2, chromogenic assay, read-out: Thrombin* (IC50 nM).
Setting [10] is: Table 2, read-out: Matriptase (IC50 nM).
The mark [11] stands for this setting: Table 2, read-out: Hepsin (IC50 nM).
Where [12] appears, read: Table 2, chromogenic assay, read-out: Factor Xa* (IC50 nM).
The mark [13] stands for this setting: Table 2, read-out: HGFA (IC50 nM).

Where two headings read alike, the source gives them in different places. Bounds are passed on as bounds.

Factor Xa, sequence (P00742 235-488 limits assumed): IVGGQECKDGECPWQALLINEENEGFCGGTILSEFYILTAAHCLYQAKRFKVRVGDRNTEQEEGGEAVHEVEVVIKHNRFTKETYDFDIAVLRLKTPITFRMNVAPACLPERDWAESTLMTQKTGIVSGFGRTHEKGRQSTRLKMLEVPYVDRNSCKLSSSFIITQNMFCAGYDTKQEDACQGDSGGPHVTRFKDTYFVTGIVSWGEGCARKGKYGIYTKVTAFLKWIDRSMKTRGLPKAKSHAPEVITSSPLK
Factor Xa, sequence (P00742 41-179 partner limits assumed): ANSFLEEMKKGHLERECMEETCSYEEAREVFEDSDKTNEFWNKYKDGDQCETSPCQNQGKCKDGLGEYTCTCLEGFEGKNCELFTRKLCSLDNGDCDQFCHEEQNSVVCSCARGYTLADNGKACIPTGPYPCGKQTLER
T2 sequence (P05981 163-417 limits assumed): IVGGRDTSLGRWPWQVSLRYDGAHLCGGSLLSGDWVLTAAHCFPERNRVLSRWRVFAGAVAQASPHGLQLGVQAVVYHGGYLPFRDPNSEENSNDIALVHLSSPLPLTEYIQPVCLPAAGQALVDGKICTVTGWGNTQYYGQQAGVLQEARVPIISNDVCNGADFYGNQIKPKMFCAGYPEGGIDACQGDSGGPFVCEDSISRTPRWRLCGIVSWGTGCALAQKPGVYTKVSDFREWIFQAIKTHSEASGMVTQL
T2 sequence (P05981 1-162 partner limits assumed): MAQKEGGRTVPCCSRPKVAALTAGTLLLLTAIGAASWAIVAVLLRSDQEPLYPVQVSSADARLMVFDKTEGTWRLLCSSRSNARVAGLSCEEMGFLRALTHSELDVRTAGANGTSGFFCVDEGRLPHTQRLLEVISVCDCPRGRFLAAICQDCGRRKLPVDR

With `CC(C)C[C@H](NC(=O)OC1(Cc2ccccc2)CCNCC1)C(=O)N[C@@H](CCCNC(=N)N)C(=O)c1nc2ccccc2s1` [Compound 8b, 4-benzylpiperidin-4-yl((S)-1-(((S)-1-(benzo[d]thiazol-2-yl)-5-guanidino-1-oxopentan-2-yl)amino)-4-methyl-1-oxopentan-2-yl)carbamate], the IC50 was 30 nM in assay [1] (setting [6]); 0.6 nM in assay [2] (setting [7]); more than 20000 nM in assay [3] (setting [8]); 1200 nM in assay [4] (Table 3, average of three experiments, read-out: HGFA IC50).

As to `CC(=O)N1CCC(CCc2ccccc2)(OC(=O)N[C@@H](CC(C)C)C(=O)N[C@@H](CCCNC(=N)N)C(=O)c2nc3ccccc3s2)CC1` [Compound 8c, 1-acetyl-4-phenethylpiperidin-4-yl ((S)-1-(((S)-1-(benzo[d]thiazol-2-yl)-5-guanidino-1-oxopentan-2-yl)amino)-4-methyl-1-oxopentan-2-yl)carbamate], the IC50 in assay [1] (setting [6]) is 70 nM; in assay [2] (setting [7]), 0.5 nM; in assay [3] (setting [8]) it was 7700 nM; in assay [5] (Table 3, average of three experiments, read-out: Factor Xa IC50), 2000 nM.

With `CSCCC[C@H](NC(C)=O)C(=O)N[C@@H](CCC(N)=O)C(=O)N[C@@H](Cc1ccccc1)C(=O)N[C@@H](CCCNC(=N)N)C(=O)c1nc2ccccc2s1` [MM3130, Ac-MQFR-kbt], the IC50 in assay [3] (setting [9]) is more than 20000 nM.

As to `CC(=O)N[C@@H](CCC(N)=O)C(=O)N[C@@H](Cc1ccccc1)C(=O)NC(CCCNC(=N)N)C(=O)c1nc2ccccc2s1` (stereo partly shown) [MM3144, Ac-QFR-kbt], the IC50 in assay [3] (setting [9]) was more than 20000 nM.

As to `CC(C)C[C@@H]1NC(=O)[C@@H](N)CC(=O)NCCCC[C@@H](C(=O)N[C@@H](CCCNC(=N)N)C(=O)c2nc3ccccc3s2)NC1=O` [VD2055, (3S,6S,14S)-6-amino-N—((S)-1-(benzo[d]thiazol-2-yl)-5-guanidino-1-oxopentan-2-yl)-3-isobutyl-2,5,8-trioxo-1,4,9-triazacyclotetradecane-14-carboxamide], the 50% inhibitory concentration (IC50) in assay [1] (setting [10]) stood at 0.86 nM; in assay [2] (setting [11]) it was 0.46 nM; in assay [5] (setting [12]) it was 1550 nM; in assay [4] (setting [13]) it was 11400 nM.

Take `CC(=O)N[C@H]1CCCCNC(=O)CC[C@@H](C(=O)N[C@@H](CCCNC(=N)N)C(=O)c2nc3ccccc3s2)NC(=O)[C@H](CC(C)C)NC1=O` [VD2064, (2S,5S,14S)-14-acetamido-N—((S)-1-(benzo[d]thiazol-2-yl)-5-guanidino-1-oxopentan-2-yl)-2-isobutyl-3,8,15-trioxo-1,4,9-triazacyclopentadecane-5-carboxamide]: the IC50 amounted to 4.4 nM in assay [1] (setting [10]), 1.7 nM in assay [2] (setting [11]), 723 nM in assay [5] (setting [12]) and 4470 nM in assay [4] (setting [13]).

As for `CC(=O)N[C@H]1CC(=O)NCCCC[C@@H](C(=O)N[C@@H](CCCNC(=N)N)C(=O)c2nccs2)NC(=O)[C@H](CC(C)C)NC1=O` [VD3076, (3S,6S,14S)-6-acetamido-N—((S)-5-guanidino-1-oxo-1-(thiazol-2-yl)pentan-2-yl)-3-isobutyl-2,5,8-trioxo-1,4,9-triazacyclotetradecane-14-carboxamide], the IC50 is 41.3 nM in assay [1] (setting [10]), 136 nM in assay [2] (setting [11]), 7940 nM in assay [3] (setting [9]) and 1360 nM in assay [5] (setting [12]).

For `CC(=O)N[C@H]1CC(=O)NCCCC[C@@H](C(=O)N[C@@H](CCCNC(=N)N)C(=O)c2nc3ccccc3s2)NC(=O)[C@H](C)NC1=O` [VD3141, (3S,6S,14S)-6-acetamido-N—((S)-1-(benzo[d]thiazol-2-yl)-5-guanidino-1-oxopentan-2-yl)-3-methyl-2,5,8-trioxo-1,4,9-triazacyclotetradecane-14-carboxamide], the IC50 in assay [1] (setting [10]) was 2.5 nM; in assay [2] (setting [11]), 8.8 nM; in assay [3] (setting [9]), more than 20000 nM; in assay [4] (setting [13]), 13700 nM.

On to `CC(=O)N[C@H]1CC(=O)NCCCC[C@@H](C(=O)N[C@@H](CCCNC(=N)N)C(=O)c2nc3ccccc3s2)NC(=O)[C@H](Cc2ccc(O)cc2)NC1=O` [VD3158, (3S,6S,14S)-6-acetamido-N—((S)-1-(benzo[d]thiazol-2-yl)-5-guanidino-1-oxopentan-2-yl)-3-(4-hydroxybenzyl)-2,5,8-trioxo-1,4,9-triazacyclotetradecane-14-carboxamide], for which the half-maximal inhibitory concentration (IC50) was 6.1 nM in assay [1] (setting [10]), 44 nM in assay [2] (setting [11]), more than 20000 nM in assay [3] (setting [9]) and 17000 nM in assay [5] (setting [12]).

Consider `CC(=O)N[C@H]1CCCCn2cc(nn2)C[C@H](C(=O)N[C@H](CCCNC(=N)N)C(=O)c2nc3ccccc3s2)NC(=O)[C@H](CC(C)C)NC1=O` [VD4118B], for which the IC50 in assay [1] (setting [10]) was found to be 91.2 nM; in assay [2] (setting [11]), 137 nM; in assay [5] (setting [12]), 9540 nM; in assay [4] (setting [13]), 10900 nM.

In the case of `CC(=O)N[C@H]1CCCCn2cc(nn2)C[C@H](C(=O)N[C@@H](CCCNC(=N)N)C(=O)c2nc3ccccc3s2)NC(=O)[C@H](CC(C)C)NC1=O` [VD4118], the IC50 in assay [1] (setting [10]) was determined as 19.5 nM; in assay [2] (setting [11]) it was 117 nM; in assay [5] (setting [12]) it was 1930 nM; in assay [4] (setting [13]), 15600 nM.

With `CC(=O)N[C@H]1Cc2ccc(cc2)OCCCC[C@@H](C(=O)N[C@@H](CCCNC(=N)N)C(=O)c2nc3ccccc3s2)NC(=O)[C@@H](Cc2c[nH]c3ccccc23)NC1=O` [VD4162B], the IC50 in assay [3] (setting [9]) amounted to 14600 nM; in assay [5] (setting [12]), 1110 nM.

The IC50 is the concentration needed to halve the response being measured.
